ChEMBL document CHEMBL4742395, “Substituted Pyrazole Derivatives As Selective CDK12/13 Inhibitors” (2019)

Tests used:
[1] = biological target: T1, Cyclin-dependent kinase 12 (Homo sapiens, UniProt Q9NYV4); assay: Inhibition of CDK12 (unknown origin) using ULight - 4E - BP1( Thr37 / Thr46 ) as substrate preincubated for 60 mins bu LANCE-TR-FRET assay
Target sequence in this assay (Q9NYV4 whole entry): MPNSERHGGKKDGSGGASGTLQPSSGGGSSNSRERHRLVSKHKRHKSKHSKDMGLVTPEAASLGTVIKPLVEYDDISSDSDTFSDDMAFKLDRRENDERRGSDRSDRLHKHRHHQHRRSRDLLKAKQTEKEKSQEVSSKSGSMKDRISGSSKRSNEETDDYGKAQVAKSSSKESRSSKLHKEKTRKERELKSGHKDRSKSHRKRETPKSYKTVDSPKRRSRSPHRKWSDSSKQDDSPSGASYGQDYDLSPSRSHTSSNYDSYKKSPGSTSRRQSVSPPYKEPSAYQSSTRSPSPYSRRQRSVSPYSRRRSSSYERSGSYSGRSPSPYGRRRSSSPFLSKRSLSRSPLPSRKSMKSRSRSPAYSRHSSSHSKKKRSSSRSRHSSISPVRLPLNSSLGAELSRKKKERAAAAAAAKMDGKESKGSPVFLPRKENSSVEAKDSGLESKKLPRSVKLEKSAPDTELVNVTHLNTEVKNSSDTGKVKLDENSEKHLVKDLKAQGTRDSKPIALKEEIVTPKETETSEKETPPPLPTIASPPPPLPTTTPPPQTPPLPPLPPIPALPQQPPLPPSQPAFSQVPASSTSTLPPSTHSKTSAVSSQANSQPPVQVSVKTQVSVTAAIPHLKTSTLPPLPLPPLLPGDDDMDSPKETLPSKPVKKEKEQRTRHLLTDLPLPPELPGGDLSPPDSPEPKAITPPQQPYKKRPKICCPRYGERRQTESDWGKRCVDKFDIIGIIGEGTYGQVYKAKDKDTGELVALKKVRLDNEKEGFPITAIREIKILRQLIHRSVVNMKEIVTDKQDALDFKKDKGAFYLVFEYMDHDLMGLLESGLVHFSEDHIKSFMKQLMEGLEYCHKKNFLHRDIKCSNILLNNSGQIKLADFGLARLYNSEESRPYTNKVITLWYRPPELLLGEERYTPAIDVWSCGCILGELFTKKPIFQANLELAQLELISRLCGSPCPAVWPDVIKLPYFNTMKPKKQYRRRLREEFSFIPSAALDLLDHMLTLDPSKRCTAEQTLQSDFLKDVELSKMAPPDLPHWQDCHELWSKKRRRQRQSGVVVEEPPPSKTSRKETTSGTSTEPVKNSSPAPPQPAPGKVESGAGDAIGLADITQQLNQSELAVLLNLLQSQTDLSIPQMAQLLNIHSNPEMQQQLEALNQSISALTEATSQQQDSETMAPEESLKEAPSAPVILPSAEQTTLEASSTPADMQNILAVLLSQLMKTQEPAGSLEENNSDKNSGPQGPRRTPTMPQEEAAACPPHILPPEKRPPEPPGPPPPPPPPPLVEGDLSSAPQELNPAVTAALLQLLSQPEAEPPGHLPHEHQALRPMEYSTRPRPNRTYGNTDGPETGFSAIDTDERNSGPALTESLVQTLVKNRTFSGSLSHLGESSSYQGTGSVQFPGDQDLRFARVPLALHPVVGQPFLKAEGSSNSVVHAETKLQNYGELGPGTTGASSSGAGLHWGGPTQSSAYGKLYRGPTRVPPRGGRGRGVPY

[2] = biological target: Cyclin-dependent kinase 13 (Homo sapiens, UniProt Q14004); assay: Binding affinity to CDK13 (unknown origin) by TR-FRET assay
[3] = biological target: T1, Cyclin-dependent kinase 12; assay: Binding affinity to CDK12 in human Jurkat cells assessed as target occupancy after 6 hrs by spectrophotometry; format: cell-based
Target sequence in this assay (Q9NYV4 whole entry, looked up): as the sequence (Q9NYV4 whole entry) above

Homo sapiens [4] = organism: Homo sapiens; assay: Selectivity index, ratio of target occupancy for CDK7 in human Jurkat cells to target occupancy for CDK12 in human Jurkat cells; format: cell-based
[5] = biological target: Cyclin-dependent kinase 7 (Homo sapiens) (UniProt P50613); assay: Binding affinity to CDK7 in human Jurkat cells assessed as target occupancy after 6 hrs by spectrophotometry; format: cell-based
Homo sapiens [6] = organism: Homo sapiens; assay: Selectivity index, ratio of IC50 for inhibition of CDK7 (unknown origin) to IC50 for inhibition of CDK12 (unknown origin)
Homo sapiens [7] = organism: Homo sapiens; assay: Selectivity index, ratio of IC50 for inhibition of CDK7 (unknown origin) to IC50 for binding affinity to CDK13 (unknown origin)

Cyclin-dependent kinase 13, sequence (Q14004 whole entry): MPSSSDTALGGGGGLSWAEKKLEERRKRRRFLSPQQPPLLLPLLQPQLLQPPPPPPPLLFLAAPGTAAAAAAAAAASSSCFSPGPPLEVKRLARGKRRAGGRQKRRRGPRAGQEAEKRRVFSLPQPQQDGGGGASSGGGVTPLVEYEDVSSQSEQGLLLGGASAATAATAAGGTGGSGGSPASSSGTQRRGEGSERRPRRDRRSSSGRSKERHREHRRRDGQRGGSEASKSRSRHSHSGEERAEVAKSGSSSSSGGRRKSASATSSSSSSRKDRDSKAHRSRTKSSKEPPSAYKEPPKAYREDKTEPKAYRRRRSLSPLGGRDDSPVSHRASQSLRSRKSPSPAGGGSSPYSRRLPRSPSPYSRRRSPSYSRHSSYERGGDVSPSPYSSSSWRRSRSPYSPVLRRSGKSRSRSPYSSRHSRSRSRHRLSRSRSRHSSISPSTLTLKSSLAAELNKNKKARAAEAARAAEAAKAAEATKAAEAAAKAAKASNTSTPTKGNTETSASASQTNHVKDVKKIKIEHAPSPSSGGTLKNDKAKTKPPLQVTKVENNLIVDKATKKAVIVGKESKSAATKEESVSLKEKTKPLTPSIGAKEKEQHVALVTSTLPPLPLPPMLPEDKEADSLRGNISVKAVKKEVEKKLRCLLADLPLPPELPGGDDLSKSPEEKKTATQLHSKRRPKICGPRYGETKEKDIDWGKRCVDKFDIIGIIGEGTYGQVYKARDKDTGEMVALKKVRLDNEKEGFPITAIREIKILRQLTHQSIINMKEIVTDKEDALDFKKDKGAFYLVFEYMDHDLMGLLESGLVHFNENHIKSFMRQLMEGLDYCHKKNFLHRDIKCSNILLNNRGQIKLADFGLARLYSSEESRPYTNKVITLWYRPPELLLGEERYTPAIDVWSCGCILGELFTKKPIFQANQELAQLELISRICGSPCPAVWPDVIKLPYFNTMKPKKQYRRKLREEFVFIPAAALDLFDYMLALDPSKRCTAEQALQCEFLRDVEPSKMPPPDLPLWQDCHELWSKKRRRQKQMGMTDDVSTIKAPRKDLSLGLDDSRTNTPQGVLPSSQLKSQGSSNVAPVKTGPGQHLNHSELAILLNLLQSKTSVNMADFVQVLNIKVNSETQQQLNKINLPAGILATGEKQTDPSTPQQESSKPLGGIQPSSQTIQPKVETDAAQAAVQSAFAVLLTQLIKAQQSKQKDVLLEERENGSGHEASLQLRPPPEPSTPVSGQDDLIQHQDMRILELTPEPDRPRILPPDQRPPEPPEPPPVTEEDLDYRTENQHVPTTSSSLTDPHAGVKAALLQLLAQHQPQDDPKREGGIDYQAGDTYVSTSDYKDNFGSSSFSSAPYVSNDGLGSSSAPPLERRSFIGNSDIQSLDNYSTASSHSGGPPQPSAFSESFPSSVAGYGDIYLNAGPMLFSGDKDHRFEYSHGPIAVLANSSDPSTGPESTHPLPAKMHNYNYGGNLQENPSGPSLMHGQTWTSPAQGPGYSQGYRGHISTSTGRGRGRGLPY
Cyclin-dependent kinase 7 (Homo sapiens), sequence (P50613 whole entry): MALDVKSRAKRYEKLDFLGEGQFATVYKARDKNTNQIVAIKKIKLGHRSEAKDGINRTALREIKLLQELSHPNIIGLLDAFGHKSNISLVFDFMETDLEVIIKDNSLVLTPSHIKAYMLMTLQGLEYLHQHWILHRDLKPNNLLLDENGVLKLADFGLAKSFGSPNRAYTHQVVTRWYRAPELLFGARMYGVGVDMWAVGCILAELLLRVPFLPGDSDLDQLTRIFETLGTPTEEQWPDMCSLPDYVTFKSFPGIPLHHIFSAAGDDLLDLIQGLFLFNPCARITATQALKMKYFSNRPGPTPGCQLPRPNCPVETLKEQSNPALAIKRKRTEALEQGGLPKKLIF

Row | IC50 [1] | IC50 [2] | Occ50 [3] | Occ50 [5] | Compound | Ratio (Homo sapiens [4]) | Ratio IC50 (Homo sapiens [6]) | Ratio IC50 (Homo sapiens [7])
1 | 37 nM | 5 nM |  |  | CC#CC(=O)N1CCC=C(c2ccc(CC(=O)Nc3cc(C4CC4)[nH]n3)cn2)C1 |  |  | 
2 | 40 nM | 19 nM | 0.025 µM |  | C=CC(=O)N1CC=C(c2ccc(CC(=O)Nc3cc(C4CC4)[nH]n3)cn2)CC1 |  |  | 
3 | 160 nM | 279 nM |  |  | C=CC(=O)N1CCC=C(c2ccc(C(C(=O)Nc3cc(C4CC4)[nH]n3)C(C)C)cc2)C1 (stereo not given) |  |  | 
4 |  |  | 0.305 µM | 130 nM | CC(C(=O)Nc1cc(C2CC2)[nH]n1)c1cccc(C2CCN(C(=O)/C=C/CN(C)C)CC2)c1 (stereo not given) | 0.425 |  | 
5 | 55 nM | 6 nM |  |  | C=CC(=O)N1CCC(c2ccc(C(C)C(=O)Nc3cc(C4CC4)[nH]n3)cn2)C1 (stereo not given) |  |  | 
6 |  |  |  | 1670 nM | C[C@H](C(=O)Nc1cc(C2CC2)[nH]n1)c1ccc(C2=CCN(C(=O)/C=C/CN(C)C)CC2)cc1 |  |  | 

Row | Compound | IC50 [1] | IC50 [2] | Occ50 [3] | Occ50 [5] | Ratio (Homo sapiens [4]) | Ratio IC50 (Homo sapiens [6]) | Ratio IC50 (Homo sapiens [7])
7 | C=CC(=O)N1CCC=C(c2ccc(CC(=O)Nc3cc(C4CC4)[nH]n3)cn2)C1 | 23 nM | 4 nM | 0.016 µM |  |  | 75.2 | 432
8 | CCN(CC)C/C=C/C(=O)N1CC=C(c2ccc([C@H](C)C(=O)Nc3cc(C4CC4)[nH]n3)cc2)CC1 | 895 nM | 72 nM |  |  |  |  | 
